Measured values published in patent publication US12042481B2, “Use of (1R,5S)-(+)-1-(naphthalen-2-yl)-3-azabicyclo[3.1.0]hexane in the treatment of conditions affected by monoamine neurotransmitters” (priority 2011, dated 2024).
Entries after “also recorded” stand apart in the source; their conditions may differ.

Tests used:
[1] = tested on: rats; assay: Forced swim test in rats; assay type: in vivo, rat; conditions: 40 mg/kg p.o., data not shown
[2] = tested on: monoamine uptake transporters; assay: Microdialysis in rat prefrontal cortex (extracellular NE, DA, 5-HT); assay type: in vivo
Method: To evaluate the effect of (1R,5S)-(+)-1-(naphthalen-2-yl)-3-azabicyclo[3.1.0]hexane on monoamine uptake transporters in vivo, microdialysis studies were performed in rat brain regions.
Microdialysis studies were conducted using male Wistar rats (250-300 g) bred at the Institute of Pharmacology, the Polish Academy of Sciences, Krakow, Poland. The rats (250-300 g) were housed on a 12 h/12 h light/dark cycle at a constant temperature and humidity, and were provided with food and water ad libitum. The microdialysis procedure has been previously described (Popik et al., 2006). Briefly, the rats were anaesthetized with ketamine (75 mg/kg IM) and xylazine (10 mg/kg IM), placed in a stereotaxic apparatus (David Kopf Instruments, Tujunga, CA, USA) with their skulls exposed. Small holes were drilled in the skull for insertion of the vertical microdialysis probes into the prefrontal cortex and striatum, respectively using the following coordinates: 2.9 mm anterior from the bregma, 0.8 mm lateral from the sagittal suture and −4.5 ventral from the dura surface (prefrontal cortex); 1.8 mm anterior from the bregma, 2.7 mm lateral from the sagittal suture and −7.0 mm ventral from the dura surface (striatum) (Paxinos and Watson, 1998). Microdialysis probes were constructed by inserting two fused silica tubes (30 and 35 mm long, 150 μm o.d.; Polymicro Technologies Inc., Phoenix, AZ, USA) into a microdialysis fiber (220 μm o.d.; AN69, Hospal, Bologna, Italy). The tube assembly was placed in a stainless steel cannula (22 G, 10 mm) forming the shaft of the probe. Portions of the inlet and outlet tubes were individually placed inside polyethylene PE-10 tubing and were glued for protection. The free end of the dialysis fibre was sealed, and 3 mm of the exposed length used for dialysis in prefrontal cortex and 4 mm for striatum. One day after the surgery and probe implantation, the inlet of the dialysis probes was connected to a syringe pump (BAS, IN, USA) which delivered an artificial cerebrospinal fluid (aCSF) composed of [in mM]: NaCl 145, KCl 2.7, MgCl2 1.0, CaCl2 1.2; pH=7.4 at a flow rate of 1.5 μl/min. After a two hour rinsing period to stabilize the extracellular level of neurotransmitters, 3-4 baseline samples were collected in 20 minute sampling periods. Next, (1R,5S)-(+)-1-(naphthalen-2-yl)-3-azabicyclo[3.1.0]hexane (dissolved in 0.9% saline solution) at doses of 10 or 20 mg/kg intraperioneally (i.p.) was administered to the animals at 4 ml/kg and consequent dialysate fractions were collected every 20 min for 3 hrs. At the end of the experiments the rats were sacrificed and their brains were histologically examined to validate the correct probe placement
Dopamine, and serotonin (5-HT) were analysed by HPLC with electrochemical detection. Chromatography was performed using an LC-10 AD pump (Shimadzu Europa GmbH, Warszawa, Poland), an LC-4B amperometric detector with a cross-flow detector cell (BAS, IN, USA) and BDS-Hypersil C18 analytical column (3×100 mm, 3 μm, Thermo Electron Corp., UK). The mobile phase was composed of 0.1 M monochloracetic acid adjusted to pH=3.7 with 3 M sodium hydroxide, 0.5 mM EDTA, 25 mg/L 1-octanesulfonic acid sodium salt, 5.7% methanol, and 2.5% acetonitrile. The flow rate was 0.5 ml/min, and the applied potential of a 3 mm glassy carbon electrode was +600 mV with a sensitivity of 2 nA/V. Norepinephrine was measured using HPLC system equipped with a P580 pump (Dionex, CA, USA) connected to a BAS injection valve with a 10 μI injection loop and a BDS-Hypersil analytical column (2.0×100 mm, a 3 μm, Thermo Electron Corp., UK). The mobile phase was composed of 0.05 M potassium dihydrogen phosphate (adjusted to pH=3.7 with ortho-phosphoric acid), 0.5 mM EDTA, 150 mg/L 1-octanesulfonic acid sodium salt, 10 mM NaCl, and 1.2% acetonitrile. The flow rate was 180 μl/min. NE in the dialysates was detected with a BAS UniJet radial flow detector cell coupled to a LC-4B amperometric detector (BAS, IN, USA). […]

[3] = tested on: male CD-1 (Crl.) derived mice; assay: Mouse spontaneous locomotor activity; assay type: in vivo
Method: For the locomotor activity determination, male CD-1 (Crl.) derived mice were orally administered (1R,5S)-(+)-1-(naphthalen-2-yl)-3-azabicyclo[3.1.0]hexane as described in Example IV. Locomotor activity for mice in groups of 10 was assessed by placing mice individually into custom built chambers in a quiet isolated 22° C. room (conducted by MDS Pharma Services, Taipei, Taiwan 112, R. O. C.). At 15-minute intervals over 2 hours post-dosing, total travel distances (in cm) for individual animals were recorded using the Etho Vision Pro System (Noldus, USA).

[4] = tested on: male CD-1 (Crl.) derived mice; assay: Mouse tail suspension test; assay type: in vivo
Method: The behavioral effects of (1R,5S)-(+)-1-(naphthalen-2-yl)-3-azabicyclo[3.1.0]hexane were evaluated in a model predictive of antidepressant activity, the mouse tail suspension test (Cryan and Mombereau, 2004).
For the tail test suspension test, male CD-1 (Crl.) derived mice weighing 20-26 g were provided by BioLasco Taiwan (Charles River Laboratories Technology Licensee). All animals were maintained in a controlled temperature (23° C.-24° C.) and humidity (60%-70%) environment with 12 hours light dark cycles for at least one week prior to use. For the tail suspension test, (1R,5S)-(+)-1-(naphthalen-2-yl)-3-azabicyclo[3.1.0]hexane was administered orally at dose from 10-40 mg/kg p.o. to groups of 10 CD-1 derived male mice by MDS Pharma Services, Taipei, Taiwan 112, R. O. C. (1R,5S)-(+)-1-(naphthalen-2-yl)-3-azabicyclo[3.1.0]hexane was dissolved in 2% Tween 80 and was administered at 10 ml/kg 60 minutes prior to the tail suspension test. During the test, the mice were suspended on the edge of a shelf 58 cm above a table top by adhesive tape placed approximately 1 cm from the tip of the tail. The duration of immobility was recorded for a period of 5 minutes (during 2-7 minutes of the tail suspension). The duration of the effects of (1R,5S)-(+)-1-(naphthalen-2-yl)-3-azabicyclo[3.1.0]hexane was also evaluated in the tail suspension test by varying pretreatment time.

Compound: c1ccc2cc([C@]34CNC[C@H]3C4)ccc2c1 [(1R,5S)-(+)-1-(naphthalen-2-yl)-3-azabicyclo[3.1.0]hexane]
- immobility in the forced swim test [1]: reduced immobility
- time by which extracellular 5-HT was markedly increased [2]: ≤ 40 min
- peak increase of extracellular NE ([2]; 10 mg/kg i.p.): over 325 % of baseline
- peak increase of extracellular NE ([2]; 20 mg/kg i.p.): > 375 % of baseline
- duration of increase of extracellular DA ([2]; 10 and 20 mg/kg i.p.): over 3 hours
- duration of increase of extracellular NE ([2]; 10 and 20 mg/kg i.p.): over 3 hours
- peak increase of extracellular 5-HT ([2]; 10 and 20 mg/kg i.p.): 300 % of baseline
- time after administration at which extracellular NE was markedly increased ([2]; 10 and 20 mg/kg i.p.): 40 min
- time by which extracellular DA was increased ([2]; 10 and 20 mg/kg i.p.): ≤ 20 min
- duration of significant increase of extracellular 5-HT ([2]; both doses 10 and 20 mg/kg i.p.): over 3 hours
- peak increase of extracellular DA ([2]; the two doses 10 and 20 mg/kg i.p.): 240-300 % of baseline
- locomotor activity (FIG. 5) ([3]; 20, 40 mg/kg p.o., 15 minute epochs, p<0.05 versus vehicle): decreased locomotor activity at several time points
- spontaneous locomotor activity ([3]; oral, distance traveled at 15-minute intervals over 2 hours): did not significantly increase; also recorded: significantly decrease locomotor activity at several time points
- immobility ([4]; 20 mg/kg p.o., at 30 minutes): 84 % of control
- immobility ([4]; 20 mg/kg p.o., at 60 minutes): 82 % of control
- immobility ([4]; 20 mg/kg p.o., at 120 minutes): 75 % of control
- immobility ([4]; 20 mg/kg p.o., at 240 minutes): 47 % of control
- immobility ([4]; 40 mg/kg p.o., 60 minutes prior to test): 87 % of control
- duration of effect ([4]; oral): over 4 hours
- efficacy compared with desipramine (30 mg/kg p.o.) ([4]; oral): equivalent to the tricyclic antidepressant desipramine
- minimal effective dose for reducing time immobilized ([4]; oral, 60 minutes prior to test): 20 mg/kg
